Measured values: patent US9265709B2, “Use of peptides as antidandruff agents” (L'OREAL, priority 2009, dated 2016)
Ends that are not written are not given here.

Tested on: M. furfur
Assay: Antimicrobial activity (MIC) micromethod in microplates on microorganisms responsible for dandruff
Type: cell-based
Settings: Sabouraud medium with 10% olive oil, 24 to 48 hours at 32.5° C., OD 620 nm vs control without peptide, peptide tested at 0.1%, 0.25%, 0.5% and 1%
Procedure: The antimicrobial activity of the peptides used according to the invention may be evaluated by measuring their minimum inhibitory concentration (MIC). Decreasing concentrations of peptides are contacted with standardised inoculum of microorganisms in a culture medium suitable for growth of said microorganisms in exponential growth phase. After incubation at the suitable temperature for the microorganism, the growth is evaluated by an OD (620 nm) measurement. […] The MIC obtained may be compared with the same measurement performed only with solvent (without the peptide) or with a compound of known antibiotic activity. This test may also be used to test the selectivity of the peptides used. This method can be used to determine the effect of the test peptide on a beneficial microorganism of the microbial flora of the scalp such as Staphylococcus epidermidis. Peptides that give on the strains responsible for desquamative disorders of the hair and/or the scalp (e.g., M. furfur) better inhibition than on the beneficial strains (e.g., S. epidermidis) will be selected.
The test has been carried using a micromethod in microplates. […]
After incubation of the microplate from 24 to 48 hours at 32.5° C., optical density at 620 nm has been measured. […]

## FLSLIPHAINAVSAIAKHF-NH2 (listed as Phyllomedusa azurea) [PS-7]
  MIC: <0.1%

## GLWSTIKNVGKEAAIAAGKAALGAL-NH2 (listed as Phyllomedusa hypochondrialis) [DPh-1]
  MIC: <0.1%
